Reference: patent publication US20250332300A1 (priority 2024, published 2025)
Where a name gives a salt, the structure may show the parent alone. Read-outs that look alike come from different tables or passages of the source. Starred links: 1 amine or outer side, 2 acyl side, 3 side chain; linkers in the order of their positions; H or OH if unused. Positions of bridges follow the written chain, without caps; N, C: chain ends. Non-standard residues stand in square brackets, D forms with d. Residues, ends and D or L forms follow the SMILES beside them. *: point of attachment. Trp(5-OH) = N[C@@H](Cc1c[nH]c2ccc(O)cc12)C(=O)O; X9 = CN([C@@H](CCc1cccc(Cl)c1)C(=O)[*:2])[*:1]; NMePhe(4-F) = CN[C@@H](Cc1ccc(F)cc1)C(=O)O; β2hAla(2S) = C[C@@H](CN[*:1])C(=O)[*:2]; NMehPhe = CN[C@@H](CCc1ccccc1)C(=O)O; NMeE = CN[C@@H](CCC(=O)O)C(=O)O; Aad = N[C@@H](CCCC(=O)O)C(=O)O; Gly(cPr) = N[C@H](C(=O)O)C1CC1; NMeK = CN[C@@H](CCCCN)C(=O)O; NMeDap = CN[C@@H](CN)C(=O)O; Tfa = O=C(C(F)(F)F)*

Assays:
[1] = target: human HER2 (23-652) (Homo sapiens, UniProt P04626); test: Surface plasmon resonance (SPR) for assessment of peptide affinity, human HER2; format: binding; set-up: towards human HER2 (23-652) and mouse HER2 (23-653); made in house
Procedure: Each protein was immobilized either onto a SA sensorchip (Cytiva, BR-1005-31) or CM5 sensorchip (Cytiva, BR-1005-30) to a density of 800-2000 RU. […] For the assay setup the same conditions (flow rate, running buffer, peptide dilution) as described above were used. In a first step the Anti Fc IgG Ab (from Human Antibody Capture Kit, Ref. 29234600, Cytiva) was diluted into acetate pH 5.0 at 25 ug/mL and immobilized at a flow rate of 10 uL/min over 360 s to reach a density around 6000 RU. […] The peptides were tested with an association time of 280 s followed by a dissociation time of 3000 s at a flow rate of 30 uL/min. The regeneration was done using 3 M magnesium chloride regeneration solution as obtained with a contact time of 30 s at a flow rate of 10 uL/min. Curve fitting was performed using the BiacoreTM 8K evaluation software.

[2] = target: mouse HER2 (23-653) (Mus musculus, UniProt P70424); test: TR-FRET competition assay for peptide potency, mouse HER2; format: binding; set-up: mouse HER2 (23-653) using a Cy5 labeled peptide as a probe; made in house; host or cells: mammalian cells; details: TR-FRET competition with Cy5 labeled peptide probe, 0.1 nM mouse HER2, 24 h incubation; read-out: moHER2 TR-FRET IC50
Procedure: Both proteins containing a His-, Avi-tag and biotin in Nterminus, were expressed in mammalian cells and produced in house. […] Standard assay conditions consist of 20 uL total volume in white 384-well plates (Greiner), in 10 mM HEPES buffer containing 150 mM NaCl, 3 mM EDTA, 0.05% Tween20 and 1% final DMSO. […] The ratiometric FRET assay readout is calculated from the ratio of the raw data of the two distinct fluorescence signals measured in time resolved mode (fluorescence 665 nm/fluorescence 620 nm). IC50 values were calculated with the standard Novartis in-house assay data analysis software (Helios software application, Novartis Institutes for BioMedical Research, unpublished) using the methods described in Comput. Methods. Programs. Biomed. 2006, 82, 31-37 (regression algorithms for nonlinear dose-response curve fitting).

[3] = SPR, human HER2 extracellular domain, 25° C., 1:1 binding model, read-out: huHER2-SPR-ONC KD

SMILES | Kd [1, 3] | IC50 [2] | Kd [1]
CC(=O)N[C@H]1CCCC(=O)NC[C@@H](C(=O)N(C)[C@@H](Cc2ccc(F)cc2)C(N)=O)N(C)C(=O)[C@H](C2CC2)NC(=O)[C@H](Cc2c[nH]c3ccccc23)NC(=O)[C@H](Cc2c[nH]c3ccc(O)cc23)NC(=O)[C@H](CCCCNC(=O)C(F)(F)F)N(C)C(=O)[C@H](CCc2ccccc2)N(C)C(=O)[C@H](CO)NC(=O)[C@H](Cc2ccc(O)cc2)NC1=O [Example A4, (3S,6S,9S,12S,15S,18S,21S,24S,27S)-9-((1H-indol-3-yl)methyl)-27-acetamido-N-((S)-1-amino-3-(4-fluorophenyl)-1-oxopropan-2-yl)-6-cyclopropyl-12-((5-hydroxy-1H-indol-3-yl)methyl)-24-(4-hydroxybenzyl)-21-(hydroxymethyl)-N,4,16,19-tetramethyl-5,8,11,14,17,20,23,26,31-nonaoxo-18-phenethyl-15-(4-(2,2,2-trifluoroacetamido)butyl)-1,4,7,10,13,16,19,22,25-nonaazacyclohentriacontane-3-carboxamide] (Ac-[Aad]YS[NMehPhe][NMeK](Tfa)[Trp(5-OH)]W[Gly(cPr)][NMeDap][NMePhe(4-F)]-NH2; lactam 1-9) | 8.9 nM | 29 nM | 
CC(=O)NCCCC[C@H]1C(=O)N[C@@H](Cc2c[nH]c3ccc(O)cc23)C(=O)N[C@@H](Cc2c[nH]c3ccccc23)C(=O)N[C@@H](C2CC2)C(=O)N(C)[C@H](C(=O)N(C)[C@@H](Cc2ccc(F)cc2)C(N)=O)CNC(=O)CCC[C@H](NC(C)=O)C(=O)N[C@@H](Cc2ccc(O)cc2)C(=O)N[C@@H](CO)C(=O)N(C)[C@@H](CCc2cccc(Cl)c2)C(=O)N1C [Example A8, (3S,6S,9S,12S,15S,18S,21S,24S,27S)-9-((1H-indol-3-yl)methyl)-27-acetamido-15-(4-acetamidobutyl)-N-((S)-1-amino-3-(4-fluorophenyl)-1-oxopropan-2-yl)-18-(3-chlorophenethyl)-6-cyclopropyl-12-((5-hydroxy-1H-indol-3-yl)methyl)-24-(4-hydroxybenzyl)-21-(hydroxymethyl)-N,4,16,19-tetramethyl-5,8,11,14,17,20,23,26,31-nonaoxo-1,4,7,10,13,16,19,22,25-nonaazacyclohentriacontane-3-carboxamide] (Ac-[Aad]YS[X9][NMeK](Ac)[Trp(5-OH)]W[Gly(cPr)][NMeDap][NMePhe(4-F)]-NH2; lactam 1-9) | 1 nM | 2.3 nM | 
CC(=O)NCCCC[C@H]1C(=O)N[C@@H](Cc2c[nH]c3ccc(O)cc23)C(=O)N[C@@H](Cc2c[nH]c3ccccc23)C(=O)N[C@@H](C2CC2)C(=O)N(C)[C@H](C(=O)N(C)[C@@H](Cc2ccc(F)cc2)C(N)=O)CCC(=O)NC[C@H](C)C(=O)N[C@@H](Cc2ccc(O)cc2)C(=O)N[C@@H](CO)C(=O)N(C)[C@@H](CCc2ccccc2)C(=O)N1C [Example A22, (3S,6S,9S,12S,15S,18S,21S,24S,30S)-6-((1H-indol-3-yl)methyl)-12-(4-acetamidobutyl)-N-((S)-1-amino-3-(4-fluorophenyl)-1-oxopropan-2-yl)-3-cyclopropyl-9-((5-hydroxy-1H-indol-3-yl)methyl)-21-(4-hydroxybenzyl)-18-(hydroxymethyl)-N,1,13,16,24-pentamethyl-2,5,8,11,14,17,20,23,27-nonaoxo-15-phenethyl-1,4,7,10,13,16,19,22,26-nonaazacyclotriacontane-30-carboxamide] ([β2hAla(2S)]YS[NMehPhe][NMeK](Ac)[Trp(5-OH)]W[Gly(cPr)][NMeE][NMePhe(4-F)]-NH2; lactam N-9) | 9.7 nM | 9.9 nM | 
CC(=O)N[C@H]1CCCC(=O)NC[C@@H](C(=O)N(C)[C@@H](Cc2ccc(F)cc2)C(=O)N[C@@H](CCCCNC(=O)CN2CCN(CC(=O)O)CCN(CC(=O)O)CCN(CC(=O)O)CC2)C(N)=O)N(C)C(=O)[C@H]([C@H](C)O)NC(=O)[C@H](Cc2c[nH]c3ccccc23)NC(=O)[C@H](Cc2c[nH]c3ccc(O)cc23)NC(=O)[C@H](CCCCNC(=O)CCO)N(C)C(=O)[C@H](CCc2ccccc2)N(C)C(=O)[C@H](CO)NC(=O)[C@H](Cc2ccc(O)cc2)NC1=O [Example C22] | 0.5 nM |  | 
CC(=O)NCCCC[C@H]1C(=O)N[C@@H](Cc2c[nH]c3ccc(O)cc23)C(=O)N[C@@H](Cc2c[nH]c3ccccc23)C(=O)N[C@@H](C2CC2)C(=O)N(C)[C@H](C(=O)N(C)[C@@H](Cc2ccc(F)cc2)C(=O)N[C@@H](CCCCNC(=O)CN2CCN(CC(=O)O)CCN(CC(=O)O)CCN(CC(=O)O)CC2)C(N)=O)CNC(=O)CCC[C@H](NC(C)=O)C(=O)N[C@@H](Cc2ccc(O)cc2)C(=O)N[C@@H](CO)C(=O)N(C)[C@@H](CCc2ccccc2)C(=O)N1C [Example C29] |  | 0.2 nM | 
CC[N+]1=C(/C=C/C=C/C=C2/N(CCCCCC(=O)NCCCC[C@H](NC(=O)[C@H](Cc3ccc(F)cc3)N(C)C(=O)[C@@H]3CNC(=O)CCC[C@H](NC(C)=O)C(=O)N[C@@H](Cc4ccc(O)cc4)C(=O)N[C@@H](CO)C(=O)N(C)[C@@H](CCc4ccccc4)C(=O)N(C)[C@@H](CCCCNC(C)=O)C(=O)N[C@@H](Cc4c[nH]c5ccc(O)cc45)C(=O)N[C@@H](Cc4c[nH]c5ccccc45)C(=O)N[C@@H](C4CC4)C(=O)N3C)C(N)=O)c3ccc(S(=O)(=O)O)cc3C2(C)C)C(C)(C)c2cc(S(=O)(=O)[O-])ccc21 [Example D1] | < 0.1 nM |  | 
CC[N+]1=C(/C=C/C=C/C=C2/N(CCCCCC(=O)NCCCC[C@H](NC(=O)[C@H](Cc3ccc(F)cc3)N(C)C(=O)[C@@H]3CNC(=O)CC[C@H](NC(C)=O)C(=O)N[C@@H](Cc4ccc(O)cc4)C(=O)N[C@@H](CO)C(=O)N(C)[C@@H](CCc4ccccc4)C(=O)N(C)[C@@H](CCCCNC(C)=O)C(=O)N[C@@H](Cc4c[nH]c5ccc(O)cc45)C(=O)N[C@@H](Cc4c[nH]c5ccccc45)C(=O)N[C@@H]([C@H](C)O)C(=O)N3C)C(N)=O)c3ccc(S(=O)(=O)O)cc3C2(C)C)C(C)(C)c2cc(S(=O)(=O)O)ccc21 [Example D4] |  |  | 0.4 nM
CC[N+]1=C(/C=C/C=C/C=C2/N(CCCCCC(=O)NCCOCCOCCOCCOCCOCCOCCOCCOCCOCCOCCC(=O)N[C@H]3CCCC(=O)NC[C@@H](C(=O)N(C)[C@@H](Cc4ccc(F)cc4)C(=O)N[C@@H](CCCCNC(=O)CN4CCN(CC(=O)O)CCN(CC(=O)O)CCN(CC(=O)O)CC4)C(N)=O)N(C)C(=O)[C@H](C4CC4)NC(=O)[C@H](Cc4c[nH]c5ccccc45)NC(=O)[C@H](Cc4c[nH]c5ccc(O)cc45)NC(=O)[C@H](CCCCNC(C)=O)N(C)C(=O)[C@H](CCc4ccccc4)N(C)C(=O)[C@H](CO)NC(=O)[C@H](Cc4ccc(O)cc4)NC3=O)c3ccc(S(=O)(=O)O)cc3C2(C)C)C(C)(C)c2cc(S(=O)(=O)[O-])ccc21 [Example D6] | 0.1 nM |  | 
CC[N+]1=C(/C=C/C=C/C=C2/N(CCCCCC(=O)NCCOCCOCCOCCOCCOCCOCCOCCOCCOCCOCCC(=O)NCCCC[C@H](NC(=O)[C@H](Cc3ccc(F)cc3)N(C)C(=O)[C@@H]3CNC(=O)CCC[C@H](NC(C)=O)C(=O)N[C@@H](Cc4ccc(O)cc4)C(=O)N[C@@H](CO)C(=O)N(C)[C@@H](CCc4ccccc4)C(=O)N(C)[C@@H](CCCCNC(C)=O)C(=O)N[C@@H](Cc4c[nH]c5ccc(O)cc45)C(=O)N[C@@H](Cc4c[nH]c5ccccc45)C(=O)N[C@@H](C4CC4)C(=O)N3C)C(N)=O)c3ccc(S(=O)(=O)O)cc3C2(C)C)C(C)(C)c2cc(S(=O)(=O)[O-])ccc21 [Example D7] |  |  | < 0.1 nM
